Source: patent US20010049372A1, “Antiviral nucleoside analogues” (BioChem Pharma Inc., priority 1998, published 2001)
Read-outs that look alike come from different tables or passages of the source.

Experiments:
[1] = test system: HIV-1IIIB; assay: Anti-HIV-1 antiviral assay with HIV-1IIIB in various cell types (RT activity); assay type: cell-based
Method: (§1) ANTIVIRAL ASSAYS. The anti-HIV-1 activity of the compound A (−) were assessed by employing HIV-1IIIB in a variety of cell types as previously described (Gu et al., 1992, 1994, 1999; Rando et al., 1995; Salomon et al., 1994). Briefly, cells were incubated with virus at a multiplicity of infection (MOI) of 0.005 for T cell assays and an MOI of 0.5 for monocytic cell assays for 3 hrs. Unbound virus was then removed by washing the cells, followed by seeding the cells into a 96-well plate. The infected cells were cultured in the presence of a serial concentrations of the test compound for 5-7 days. The anti-HIV-1 efficacy was determined by testing for HIV-1 RT activity or p24 level in the cell culture supernatants. All assays were performed in duplicate. Zidovudine and/or lamivudine were used as controls in each experiment.
Activity of the compound A (−) against HIV-1 in various cells. Anti-HIV-1 activity of the compound A (−) were tested in different types of cells, including human peripheral […] cells (PBMCs), T-cell (MT-2 and MT-4) and monocytic cell (U937) lines. The compound A (−) had submicromolar EC50s against HIV-1IIIB in different types of cells tested (Table 2).

[2] = Cellular toxicity by [3H]-thymidine uptake; assay type: cell-based; conditions: human
Method: The cellular toxicity of the compounds were assessed on various cells using [^3H]-thymidine uptake. Various cells, including Molt-4, HT1080, DU-145, HepG-2 and HSF, were plated at a concentration of 1-2×10^3 cells per well (96 well plates). After a 24 hr incubation period, 10-fold serial diluted compounds (b 10^−4 M to 10^−10 M) were added to the culture medium and the cells were further incubated for 72 hrs. [^3H]-thymidine was added during the final 18 hr incubation period. After incubation with the [^3H]-thymidine, the cells were washed once with PBS, treated with trypsin if the cells were adherent, and then resuspended in water (hypotonic lysing of cells). The cellular extract was applied directly to a Tomtec Harvester 96. Using this instrument the extracted DNA is adsorbed onto filters, washed and the incorporated [^3H]-thymidine is then counted. The 50% cytotoxic concentration (CC50) was determined by comparing the radioactive counts per minute of the samples in the presence of the compounds against the control. The cellular toxicity of the compounds was also tested by WST-1 staining through assessing proliferation of MT-2, H9, Jurkat, U937, and CBMCs. The established cell lines were cultured in RPMI medium in 96-well plates at a density of 5×10^4 cells/well while CBMCs were plated at a concentration of 0.5×10^6/well. A 10-fold serial diluted (10^−4-10^−7 M) compound was added at day zero. At day 4, the cells were passaged by changing half medium containing appropriately diluted compound. The cell activities were assessed at day 7 using the WST-1 reagent (Boehringer Mannheim) following the protocol provided by the supplier.
Cellular toxicity was assessed by [^3H]thymidine uptake (de Muys et al. 1999) and WST-1 staining. In the [^3H]thymidine uptake experiments, Molt-4, HT1080, DU-145, HepG2 and HSF, were plated at a concentration of 1-2×10^3 cells per well (96 well plates). PHA-stimulated PBMCs were cultured at a concentration of 4×10^4 cells per well. Following a 24 hr pre-incubation period, test compounds (10^−4 M to 10^−10 M) were added and the cells were incubated for an additional 72 hrs. [^3H]thymidine was added during the final 18 hr incubation period. The cells were then washed once with PBS, treated with trypsin if the cells were adherent, and resuspended in water (hypotonic lysing of cells). The cellular extract was applied directly to a Tomtec Harvester 96. The 50% cytotoxic concentration (CC50) was determined by comparing the radioactive counts per minute obtained from drug-tested samples to those obtained from the control (untreated) cells.

[3] = test system: Zidovudine^R/Lamivudine^R (2) clinical HIV-1 isolates; assay: Clinical HIV-1 isolates (RT activity); assay type: cell-based; conditions: Human immunodeficiency virus 1, Zidovudine^R/Lamivudine^R (2 isolates)
Method: as §1
(§2) Clinical strains were isolated from PBMCs of HIV-1 infected individuals through co-culture with PBMCs from normal dornors. To determine the RT genotype of the HIV-1 clinical isolates, the proviral DNA was extracted from infected CD4^+ T-cells or PBMCs and the complete RT coding regions were amplified by PCR as previously reported (Gu et al 1992). The PCR product was purified and then directly sequenced using primer RTS (5′-CCAAAAGTTAAACAATGGC-3′) which is located at the 5′ portion of the RT coding region (nucleotide 2603-2621 of HXB2-D coordinates). Antiviral activity was evaluated as described in example 10.

[4] = test system: Zidovudine^R/Lamivudine^R (3) clinical HIV-1 isolates (second group of Table 7); assay: Clinical HIV-1 isolates (RT activity); assay type: cell-based; conditions: Human immunodeficiency virus 1, Zidovudine^R/Lamivudine^R (3 isolates)
Method: as §1, §2

[5] = test system: Zidovudine^S/Lamivudine^S (7) clinical HIV-1 isolates; assay: Clinical HIV-1 isolates (RT activity); assay type: cell-based; conditions: Human immunodeficiency virus 1, Zidovudine^S/Lamivudine^S (7 isolates)
Method: as §1, §2

[6] = test system: 105/A (wt); assay: Drug-resistant clinical isolates in PBMCs (p24); assay type: cell-based, HIV-1; conditions: Human immunodeficiency virus 1, PBMC
Method: as §1, §2

[7] = test system: 105/F (zidovudine^R); assay: Drug-resistant clinical isolates in PBMCs (p24); assay type: cell-based, HIV-1; conditions: Human immunodeficiency virus 1, PBMC
Method: as §1, §2

[8] = test system: CCR15 (Lamivudine^R); assay: Drug-resistant clinical isolates in PBMCs (p24); assay type: cell-based, HIV-1; conditions: Human immunodeficiency virus 1, PBMC
Method: as §1, §2

[9] = test system: CCR18 (Lamivudine^R); assay: Drug-resistant clinical isolates in PBMCs (p24); assay type: cell-based, HIV-1; conditions: Human immunodeficiency virus 1, PBMC
Method: as §1, §2

[10] = test system: CCR19 (Lamivudine^R); assay: Drug-resistant clinical isolates in PBMCs (p24); assay type: cell-based, HIV-1; conditions: Human immunodeficiency virus 1, PBMC
Method: as §1, §2

[11] = Human immunodeficiency virus 1, HIV-1IIIB, MT-2 (4 determinations), RT activity, read-out: EC50
[12] = Human immunodeficiency virus 1, HIV-1IIIB, MT-4 (2 determinations), RT activity, read-out: EC50
[13] = Human immunodeficiency virus 1, MT2, HIV-1IIIB, MT-2 cells, determined by RT activity, read-out: EC50 (μM) ± S.D. in MT-2 cells
[14] = Human immunodeficiency virus 1, PBMC, HIV-1IIIB, PBMCs (3 determinations), RT activity, read-out: EC50
[15] = Human immunodeficiency virus 1, U-937, HIV-1IIIB, U937 (1 determination), RT activity, read-out: EC50
[16] = second group (r9), read-out: EC50 (μM), mean EC50 values
[17] = second group (r10), read-out: EC50 (μM), ranges of EC50s of the isolates in the same group
[18] = read-out: EC50 (μM), mean EC50 values
[19] = read-out: EC50 (μM), ranges of EC50s of the isolates in the same group
[20] = Table 4, read-out: CC50 (μM) [^3H-]TTP incorporation in: HSF
[21] = Table 4, read-out: CC50 (μM) [^3H-]TTP incorporation in: Molt-4

Structure (SMILES)	EC50 [1, 11]	EC50 [1, 12]	EC50 [1, 13]	EC50 [1, 14]	EC50 [1, 15]	EC50 [3]	EC50 [4, 16]	EC50 [4, 17]	EC50 [5, 18]	EC50 [5, 19]	IC50 [6]	IC50 [7]	IC50 [8]	IC50 [9]	IC50 [10]	CC50 at 72 h [2, 20]	CC50 at 72 h [2, 21]	also measured
Nc1nc(NC2CC2)c2ncn([C@H]3CO[C@@H](CO)O3)c2n1 [Compound A (-), (−)-(2R,4R)-2-hydroxymethyl-4-(2′-amino-6′-cyclopropylamino-purine-9′-yl)-1,3-dioxolane]	0.082 µM	0.14 µM	0.083 µM	0.22 µM	0.82 µM	0.33 µM	0.38 µM	0.13 to 0.51 µM	0.15 µM	0.032 to 0.31 µM	600 nM	840 nM	300 nM	1300 nM	1600 nM			CC50 at 72 h ([2]; DU-145 cells, Table 14, read-out: CC50 (μM) [^3H]TTP incorporation in: U145): > 500 µM; CC50 at 72 h ([2]; HSF cells, Table 14, read-out: CC50 (μM) [^3H]TTP incorporation in: HSF): 414 µM; CC50 at 72 h ([2]; HT1080 cells, Table 14, read-out: CC50 (μM) [^3H]TTP incorporation in: HT800): > 500 µM; CC50 at 72 h ([2]; HepG2 cells, Table 14, read-out: CC50 (μM) [^3H]TTP incorporation in: HepG2): > 500 µM; CC50 at 72 h ([2]; Molt-4 cells, Table 14, read-out: CC50 (μM) [^3H]TTP incorporation in: Molt4): > 500 µM
Nc1ccn([C@@H]2CS[C@H](CO)O2)c(=O)n1 [Lamivudine, lamivudine]	0.061 µM	0.17 µM	0.061 ± 0.028 µM	0.035 µM	0.014 µM	4.1 µM		≥ 5.1 µM	0.23 µM	0.028 to 0.69 µM	65 nM	170 nM	95000 nM	300000 nM	95000 nM	400 µM	> 100 µM	CC50 at 72 h ([2]; Table 14, read-out: CC50 (μM) [^3H]TTP incorporation in: HT800): > 500 µM; CC50 at 72 h ([2]; Table 14, read-out: CC50 (μM) [^3H]TTP incorporation in: HepG2): > 100 µM; CC50 at 72 h ([2]; Table 14, read-out: CC50 (μM) [^3H]TTP incorporation in: U145): > 500 µM
Cc1cn([C@H]2C[C@H](N=[N+]=[N-])[C@@H](CO)O2)c(=O)[nH]c1=O [Zidovudine, zidovudine]	0.0051 µM	0.015 µM	0.0051 ± 0.0025 µM	0.0027 µM	0.027 µM	1.15 µM	0.012 µM	0.0026 to 0.019 µM	0.021 µM	0.0034 to 0.051 µM	4.3 nM	230 nM	3 nM	4.2 nM	3 nM	> 10 µM	3 µM	CC50 at 72 h ([2]; Table 4, read-out: CC50 (μM) [^3H-]TTP incorporation in: HT1080): 5 µM; CC50 at 72 h ([2]; Table 4, read-out: CC50 (μM) [^3H-]TTP incorporation in: HepG2): 3 µM; CC50 at 72 h ([2]; Table 4, read-out: CC50 (μM) [^3H-]TTP incorporation in: U-145): > 10 µM
